Data reported in patent US20220324835A1 (Nurix Therapeutics, Inc., priority 2018, published 2022).

How the values were obtained:
Format in all cases: cell-based
primary human B cells = experiment: B cell activation assay (CD69 on anti-IgM stimulated B cells); settings: AUC of dose response curve (10 μM to 1 nM) of CD69 MFI normalized to DMSO control
Procedure, shortened: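 Negatively selected PBMC-derived B cells (>95% CD20+) treated with Cbl-b inhibitors from 10 μM to 1 nM (DMSO <0.5%) and stimulated with anti-IgM for 20 h at 37° C. CD69 MFI on CD20+ IgD+ cells by flow cytometry; dose-response AUC normalized to DMSO plus 2.5 μg/mL anti-IgM-F(ab′)2, binned A-D.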

T-cell = experiment: CD25 cell surface staining on T-cells stimulated with anti-CD3 antibody alone (Biological Example 2); settings: primary human total T-cells, baseline = anti-CD3/anti-CD28 stimulated cells without inhibitor, read-out: CD25 staining, Anti-CD3 stimulation, fold change over baseline
[1] = tested on: human T-cells with allogenic immature dendritic cells; experiment: Allogenic mixed lymphocyte reaction (MLR), T-cell proliferation; settings: 120 h, 5 days, baseline T-cells without Cbl-b inhibitor, read-out: Proliferation, fold change over baseline
Method: Cbl-b inhibitor effects on primary human T-cells were also evaluated in the context of an allogenic mixed lymphocyte reaction (MLR). Allogenic immature dendritic cells were generated under the following conditions. Peripheral blood mononuclear cells (PBMC) were obtained either: 1) by using Ficoll-Paque™ (GE Healthcare) for separation of peripheral blood hematopoietic cells from huffy coats of healthy human donors; or 2) directly from LeukoPak donations. […] Monocytes were cultured with 30 ng/mL of recombinant human GM-CSF and 20 ng/mL of recombinant human IL-4 for seven days to generate immature dendritic cells. Monocytes and T-cells were either isolated fresh from peripheral blood or thawed from frozen stocks. Human T-cells were isolated, labeled with CFSE and incubated with inhibitors as described above. […] Proliferation of the T-cells was evaluated by flow cytometry.
Readouts for the allogenic mixed lymphocyte reaction were reported as fold change over baseline. Baseline for this study was the measurement obtained from total human T-cells stimulated with allogenic immature dendritic cells, wherein the T-cells were not incubated with a Cbl-b inhibitor (Table 5). Increases in proliferation greater than 2-fold over baseline were considered a positive response (Table 5).

COC1CN(Cc2cc3c(c(C(F)(F)F)c2)CN(c2cccc([C@@](C)(F)C(F)(F)c4nncn4C)c2)C3=O)C1 [Compound 452, (R)-6-((3-methoxyazetidin-1-yl)methyl)-2-(3-(1,1,2-trifluoro-1-(4-methyl-4H-1,2,4-triazol-3-yl)propan-2-yl)phenyl)-4-(trifluoromethyl)isoindolin-1-one]
CD69 MFI AUC (primary human B cells): D (D indicates ≥1.51) | fold induction at 1 µM (T-cell; 1 μM compound): > 1 | fold induction at 8 µM (T-cell; 8 μM compound): > 1 | fold induction at 3 µM ([1]; 3 μM): < 2 | fold induction at 10 µM ([1]; 10 μM): < 2
